System: RAW 264.7 cells
Assay: Quantitative cell-permeability of FITC-labeled aMTD- or rPeptide-fused CRA recombinant proteins (flow cytometry)
Type: cell-based
Conditions: for Relative Ratio to aMTD AVE: cell-permeability of rPeptide-fused CRA recombinant protein relative to average of 240 aMTDs
Excerpt: The aMTDs and rPeptides were fluorescently labeled and compared based on the critical factors for cell-permeability by using flow cytometry and confocal laser scanning microscopy (FIGS. 5 to 8). The cellular uptake of the peptide-fused non-functional cargo recombinant proteins could quantitatively be evaluated in flow cytometry, while confocal laser scanning microscopy allows intracellular uptake to be assessed visually. The analysis included recombinant proteins fused to a negative control [rP38] that has opposite characteristics (hydrophilic and aromatic sequence: […] NO: 952)) to the aMTDs (hydrophobic and aliphatic sequences). Relative cell-permeability (relative fold) of aMTDs to the negative control was also analyzed (Table 23 and FIG. 9). […] RAW 264.7 cells were treated with 10 μM FITC-labeled recombinant proteins for 1 hour at 37° C., washed three times with cold PBS, treated with 0.25% tripsin/EDTA (Sigma-Aldrich, St. Louis, Mo.) for 20 minutes at 37° C. to remove cell-surface bound proteins. Cell-permeability of these recombinant proteins were analyzed by flow cytometry (Guava, Millipore, Darmstadt, Germany) using the FlowJo cytometric analysis software (FIGS. 5 to 6).

[1] = cell-permeability relative to negative control rP38 (A type), aMTD-fused CRA recombinant protein, 10 μM FITC-labeled, 1 hour, 37° C., RAW 264.7 cells
[2] = cell-permeability relative to reference CPP MTD85 (C type), aMTD-fused CRA recombinant protein, 10 μM FITC-labeled, 1 hour, 37° C., RAW 264.7 cells
[3] = cell-permeability relative to reference CPP MTM12 (B type), aMTD-fused CRA recombinant protein, 10 μM FITC-labeled, 1 hour, 37° C., RAW 264.7 cells
[4] = cell-permeability of aMTD-fused CRA recombinant protein relative to negative control (A: rP38)
[5] = cell-permeability of aMTD-fused CRA recombinant protein relative to reference CPP (B: MTM12)
[6] = cell-permeability of aMTD-fused CRA recombinant protein relative to reference CPP (C: MTD85)
[7] = 10 μM FITC-labeled, 1 hour, 37° C., RAW 264.7 cells
[8] = relative cell-permeability of aMTD vs reference A (not defined)
[9] = relative cell-permeability of aMTD vs reference CPP B: MTM12
[10] = relative cell-permeability of aMTD vs reference CPP C: MTD85

Substance	Relative Ratio (Fold) A [1] [Fold]	Relative Ratio (Fold) C [2] [Fold]	Relative Ratio (Fold) B [3] [Fold]	Relative Ratio (Fold) A [4] [Fold]	Relative Ratio (Fold) B [5] [Fold]	Relative Ratio (Fold) C [6] [Fold]	other results
143 (AVLAVPAVLVAP; Amino acid Sequence of aMTD143) [compound 143]	3.3	1.1	2.2				
145 (LLAVVPAVALAP; Amino acid Sequence of aMTD145) [compound 145]				9.5	6.3	3.2	
161 (AVIALPALIAAP; Amino acid Sequence of aMTD161) [compound 161]				34.5	23.0	11.6	
167 (VAIAIPAALAIP; Amino acid Sequence of rPeptide ID 167) [compound 167]							Relative Ratio to aMTD AVE [7]: 0.50
182 (ALIAPVVALVAP; Amino acid Sequence of aMTD182) [compound 182]	4.0	1.4	2.7				
183 (LLAAPVVIALAP; Amino acid Sequence of aMTD183) [compound 183]	6.0	2.0	4.0				
184 (LAAIVPAIIAVP; Amino acid Sequence of aMTD184) [compound 184]	4.8	1.6	3.2				
185 (AALVLPLIIAAP; Amino acid Sequence of aMTD185) [compound 185]				8.5	5.7	2.9	
201 (LALAVPALAALP; Amino acid Sequence of aMTD201) [compound 201]	4.2	1.4	2.8				
221 (AAILAPIVALAP; Amino acid Sequence of aMTD221) [compound 221]				10.9	7.3	3.7	
222 (ALLIAPAAVIAP; Amino acid Sequence of aMTD222) [compound 222]				32.6	21.7	11.0	
223 (AILAVPIAVVAP; Amino acid Sequence of aMTD223) [compound 223]				33.0	22.1	11.2	
225 (VAALLPAAAVLP; Amino acid Sequence of aMTD225) [compound 225]				18.3	12.2	6.2	
227 (LAAIVPIAAAVP; Amino acid Sequence of rPeptide ID 227) [compound 227]							Relative Ratio to aMTD AVE [7]: 0.08
241 (AAAVVPVLLVAP; Amino acid Sequence of aMTD241) [compound 241]				16.6	11.0	5.6	Relative Ratio to aMTD AVE [7]: 0.33
242 (AALLVPALVAAP; Amino acid Sequence of aMTD242) [compound 242]				14.6	9.7	4.9	
243 (AAVLLPVALAAP; Amino acid Sequence of aMTD243) [compound 243]	5.9	2.0	3.9				
245 (AAALAPVLALVP; Amino acid Sequence of aMTD245) [compound 245]				7.5	5.0	2.5	
261 (LVLVPLLAAAAP; Amino acid Sequence of aMTD261) [compound 261]				18.5	12.3	6.2	
262 (ALIAVPAIIVAP; Amino acid Sequence of aMTD262) [compound 262]	5.5	1.9	3.7				

Substance	Relative Ratio (Fold) A [1] [Fold]	Relative Ratio (Fold) C [2] [Fold]	Relative Ratio (Fold) B [3] [Fold]	Relative Ratio (Fold) A [4] [Fold]	Relative Ratio (Fold) B [5] [Fold]	Relative Ratio (Fold) C [6] [Fold]	other results
263 (ALAVIPAAAILP; Amino acid Sequence of aMTD263) [compound 263]				9.0	6.0	3.0	
264 (LAAAPVVIVIAP; Amino acid Sequence of aMTD264) [compound 264]				18.2	12.1	6.1	Relative Ratio (Fold) A [8]: 18.2 Fold; Relative Ratio (Fold) B [9]: 12.1 Fold; Relative Ratio (Fold) C [10]: 6.1 Fold
265 (VLAIAPLLAAVP; Amino acid Sequence of aMTD265) [compound 265]	6.0	2.0	4.0				
281 (ALIVLPAAVAVP; Amino acid Sequence of aMTD281) [compound 281]	13.3	4.5	8.9	13.3	8.9	4.5	
282 (VLAVAPALIVAP; Amino acid Sequence of aMTD282) [compound 282]				11.8	7.9	4.0	
283 (AALLAPALIVAP; Amino acid Sequence of aMTD283) [compound 283]	3.1	1.0	2.0				
284 (ALIAPAVALIVP; Amino acid Sequence of aMTD284) [compound 284]	2.8	0.9	1.8				
285 (AIVLLPAAVVAP; Amino acid Sequence of aMTD285) [compound 285]				13.3	9.9	4.5	
301 (VIAAPVLAVLAP; Amino acid Sequence of aMTD301) [compound 301]	6.0	2.0	4.0				
302 (LALAPALALLAP; Amino acid Sequence of aMTD302) [compound 302]				10.2	6.8	3.4	
304 (AIILAPIAAIAP; Amino acid Sequence of aMTD304) [compound 304]	4.4	1.5	3.0				
305 (IALAAPILLAAP; Amino acid Sequence of aMTD305) [compound 305]	4.8	1.6	3.2				
312 (VALLAPAVVVAP; Amino acid Sequence of aMTD912) [compound 312]				19.9	13.3	6.7	
321 (IVAVALPALAVP; Amino acid Sequence of aMTD321) [compound 321]				97.8	65.2	32.9	
322 (VVAIVLPALAAP; Amino acid Sequence of aMTD322) [compound 322]				17.6	11.7	5.9	
323 (IVAVALPVALAP; Amino acid Sequence of aMTD323) [compound 323]				19.1	12.8	6.4	
324 (IVAVALPAALVP; Amino acid Sequence of aMTD324) [compound 324]				10.3	6.9	3.5	Relative Ratio (Fold) A [8]: 10.3 Fold; Relative Ratio (Fold) B [9]: 6.9 Fold; Relative Ratio (Fold) C [10]: 3.5 Fold
325 (IVAVALPAVALP; Amino acid Sequence of aMTD325) [compound 325]				11.7	7.8	4.0	
329 (LPVLVPVVPVVP; Amino acid Sequence of rPeptide ID 329) [compound 329]							Relative Ratio to aMTD AVE [7]: 0.23
